In patent publication US5093475A (priority 1989, dated 1992):
Counter-ions that a name gives are not always drawn. Marks after values point to notes of the source that are not given here.

Experiments:
791 mAb = experiment: Rate of reaction of the 2-iminothiolanes with 791 mAb, coupled with DTNB, 412nm; conditions: 0.5 mM 2-iminothiolane, 20 μM 791 mAb, 2.5 mM DTNB, pH 7.5; 25° C.
Experimental: c. The rate of reaction of the 2-iminothiolanes (0.5 mM) with 791 mAb (20 μM), as monitored by coupling the reaction with 2.5 mM DTNB in 0.1 M NaPO4, 0.1 M NaCl, pH 7.5, and monitoring the change in absorbance at 412nm.

[1] = Glutathione-induced TNB release from 791/iminothiolane/TNB (disulfide stability); format: physicochemical; conditions: for Reaction rate, TNB, k × 10^5 (initial rate of TNB release from 791/linker/TNB): ca. 10 μM protein-S-S-TNB, 200 μM glutathione, PBS, 0.5 mM EDTA, pH 7.25, 25° C.; for Increase in Disulfide Stability Relative to: 2IT / Increase in Disulfide Stability Relative to: SPDP: ratio of TNB release rate constants; for Increase in Disulfide Stability Relative to: SPDP: vs 791/SPDP/TNB
Experimental: d. The initial rate of TNB release from 791/iminothiolane/TNB induced by glutathione. Samples contained ca. 10 μM of protein-S-S-TNB and 200 μM of glutathione in PBS containing 0.5 mM EDTA, pH 7.25, and were monitored at 412nm. FIG. 1 presents the results graphically.
The relative increase in disulfide stability was also compared to 791/SPDP/TNB, and was determined as for 2IT.
791/SPDP/TNB was prepared by derivatizing 791 mAb with SPDP following conventional procedures and conditions, removing any byproducts by gel filtration, releasing the PDP group with 1 mM DTT, and then reacting the liberated sulfhydryl with DTNB. Following gel filtration, the rate of TNB release was measured as in Example 19d above.

[2] = Hydrolysis of the 2-iminothiolane rings in PBS (pH 7.2), monitored at 248nm; format: physicochemical; conditions: 25° C.
Description: a. The rate of hydrolysis of the 2-iminothiolane rings in PBS (pH 7.2), monitored at 248nm.

[3] = Rate of reaction of the 2-iminothiolanes with glycine, coupled with DTNB, 412nm; format: physicochemical; conditions: 160 mM glycine, 0.5 mM DTNB, PBS pH 7.2; 25° C.
Experimental: b. The rate of reaction of the 2-iminothiolanes with 160 mM glycine in PBS (pH 7.2), monitored by coupling the reaction with 0.5 mM DTNB and following the change in absorbance at 412nm.

[4] = Thorpe et al., Cancer Res. 47:5924-5931, 1987; cited from earlier work
[5] = cited from earlier work

Compound	Reaction rate, 791, k × 10^5 (791 mAb)	Reaction rate, TNB, k × 10^5 (initial rate of TNB release from 791/linker/TNB) [1]	Increase in Disulfide Stability Relative to: 2IT [1]	Increase in Disulfide Stability Relative to: SPDP [1]	Reaction rate, Hydrolysis [2]	Reaction rate, Glycine, k × 10^3 [3]	stability of disulfide bond in vivo, in words [4]	solubility in water, in words (background) [5]	rate constant for unsubstituted 2-iminothiolane ([1]; TNB release from 791/linker/TNB by glutathione)
CC1(C)CCC(=N)S1.Cl [dimethyl-2IT, 5,5-Dimethyl-2-iminothiolane hydrochloride]	4.6 s^-1 (k × 10^5)	0.13 s^-1 (k × 10^5)	7246.0	2046.0	6.9 %/hr	3.5 s^-1 (k × 10^3)	–	–	–
CC(C)(C)C1CCC(=N)S1.Cl (stereo not drawn) [t-butyl-2IT, 5-t-Butyl-2-iminothiolane hydrochloride]	7.4 s^-1 (k × 10^5)	16.4 s^-1 (k × 10^5)	57.4	16.2	6.1 %/hr	4.4 s^-1 (k × 10^3)	–	–	–
CC1CCC(=N)S1.Cl (stereo not drawn) [methyl-2IT, 5-Methyl-2-iminothiolane hydrochloride]	4.0 s^-1 (k × 10^5)	75.3 s^-1 (k × 10^5)	12.5	3.5	5.4 %/hr	4.8 s^-1 (k × 10^3)	–	–	–
Cl.N=C1CCC(c2ccccc2)S1 (stereo not drawn) [phenyl-2IT, 5-Phenyl-2-iminothiolane hydrochloride]	8.8 s^-1 (k × 10^5)	45.8 s^-1 (k × 10^5)	20.6	5.8	1.5 %/hr	5.2 s^-1 (k × 10^3)	–	–	–
O=C(CCSSc1ccccn1)ON1C(=O)CCC1=O [SPDP, N-succinimidyl-3-(2-pyridyldithio)propionate, reference compound]	–	–	3.6	1.0	–	–	unstable in vivo	–	–
CC(SSc1ccccn1)c1ccc(C(=O)ON2C(=O)CCC2=O)cc1 (stereo not drawn) [SMPT, 4-succinimidyloxycarbonyl-α-methyl-α-(2-pyridyldithio)-toluene]	–	–	–	–	–	–	appear to have more stable disulfide linkages in vivo	low solubility in water	–
Cl.N=C1CCCS1 [Compound 2IT, 2-iminothiolane hydrochloride, reference compound]	5.0 s^-1 (k × 10^5)	942.0 s^-1 (k × 10^5)	1.0	0.3	10.2 %/hr	5.3 s^-1 (k × 10^3)	unstable in vivo	–	9.42×10^-3
N=C1CC2CCCCC2S1 (stereo not drawn) [ring-2IT, hydrochloride]	5.6 s^-1 (k × 10^5)	82.1 s^-1 (k × 10^5)	11.5	3.2	13.4 %/hr	3.4 s^-1 (k × 10^3)	–	–	–
CC(SS(=O)(=O)O)c1ccc(C(=O)ON2C(=O)CCC2=O)cc1 (stereo not drawn) [SMBT, sodium S-4-succinimidyloxycarbonyl-α-methyl benzyl thiosulfate]	–	–	–	–	–	–	appear to have more stable disulfide linkages in vivo	low solubility in water	–
Cl.N=C1CCC2(CCCCC2)S1 [spiro-2IT, 2-Imino-1-thiaspiro[4.5]decane hydrochloride]	4.6 s^-1 (k × 10^5)	0.11 s^-1 (k × 10^5)	8564.0	2418.0	5.6 %/hr	3.0 s^-1 (k × 10^3)	–	–	–
